Drawing on patent publication US10077237B2 (Sanofi, priority 2013, dated 2018), this text covers EC50 and Emax for 27 compounds.

For this assay, the target named is T1, recombinant human AMPK complex, containing α2β1γ2 (Homo sapiens, UniProt P54646+Q9Y478).
T1 construct: hsAMPKα2-552-His, hsAMPKβ1-2-270 and hsAMPKγ-2-569 respectively; hsAMPKβ1-2-270; hsAMPKγ-2-569; His (C); made in house; host or cells: Spodoptera frugiperda Sf21 (baculovirus)
Briefly: AMPK in vitro activation assay (HTRF). Type of assay: biochemical. The settings on record: for EC50: HTRF, recombinant human α2β1γ2 AMPK, 200 μM ATP, biotinylated ACC-CREBp peptide, repeat determinations on separate lines; for Emax: potentiation of AMPK activity as percent over the basal signal (without compound). In a few lines:
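HTRF phosphorylation read-out (Eu-cryptate anti-pS133-CREB, streptavidin-XL665) after a 45 min, 37° C kinase step. This step was initiated by a solution with 200 μM ATP and 2 or 0.08 μM biotinylated ACC-CREBp peptide. Beforehand, compound sat 30 min at room temperature with baculovirus/Sf21 α2β1γ2 in pH 7.0 HEPES buffer; EC50 derived from activation over basal.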

Counter-ions that a name gives are not always drawn.

T1 sequence (P54646 2-552): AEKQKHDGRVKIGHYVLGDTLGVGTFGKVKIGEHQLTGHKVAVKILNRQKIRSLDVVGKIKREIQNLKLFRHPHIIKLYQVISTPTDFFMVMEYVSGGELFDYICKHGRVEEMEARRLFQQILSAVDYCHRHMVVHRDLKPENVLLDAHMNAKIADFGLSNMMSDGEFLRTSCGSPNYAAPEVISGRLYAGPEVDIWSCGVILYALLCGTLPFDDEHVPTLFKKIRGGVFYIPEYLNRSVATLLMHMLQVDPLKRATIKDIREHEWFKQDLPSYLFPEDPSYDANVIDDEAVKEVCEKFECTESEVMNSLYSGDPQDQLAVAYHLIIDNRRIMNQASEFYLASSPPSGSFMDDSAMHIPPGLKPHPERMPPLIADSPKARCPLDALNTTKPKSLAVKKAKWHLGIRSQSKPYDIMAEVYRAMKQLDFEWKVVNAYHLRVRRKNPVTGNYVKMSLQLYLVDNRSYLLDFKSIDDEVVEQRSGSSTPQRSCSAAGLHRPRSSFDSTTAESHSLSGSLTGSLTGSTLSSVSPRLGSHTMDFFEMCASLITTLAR
T1 sequence (Q9Y478 2-270): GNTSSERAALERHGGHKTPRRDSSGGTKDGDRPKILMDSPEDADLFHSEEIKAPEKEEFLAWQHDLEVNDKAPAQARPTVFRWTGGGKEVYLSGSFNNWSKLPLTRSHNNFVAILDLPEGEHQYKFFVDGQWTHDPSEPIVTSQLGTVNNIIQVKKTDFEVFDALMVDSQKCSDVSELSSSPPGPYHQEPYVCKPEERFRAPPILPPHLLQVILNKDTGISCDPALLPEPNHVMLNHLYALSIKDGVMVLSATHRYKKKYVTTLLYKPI
T1 sequence (Q9UGJ0 2-569 partner limits assumed): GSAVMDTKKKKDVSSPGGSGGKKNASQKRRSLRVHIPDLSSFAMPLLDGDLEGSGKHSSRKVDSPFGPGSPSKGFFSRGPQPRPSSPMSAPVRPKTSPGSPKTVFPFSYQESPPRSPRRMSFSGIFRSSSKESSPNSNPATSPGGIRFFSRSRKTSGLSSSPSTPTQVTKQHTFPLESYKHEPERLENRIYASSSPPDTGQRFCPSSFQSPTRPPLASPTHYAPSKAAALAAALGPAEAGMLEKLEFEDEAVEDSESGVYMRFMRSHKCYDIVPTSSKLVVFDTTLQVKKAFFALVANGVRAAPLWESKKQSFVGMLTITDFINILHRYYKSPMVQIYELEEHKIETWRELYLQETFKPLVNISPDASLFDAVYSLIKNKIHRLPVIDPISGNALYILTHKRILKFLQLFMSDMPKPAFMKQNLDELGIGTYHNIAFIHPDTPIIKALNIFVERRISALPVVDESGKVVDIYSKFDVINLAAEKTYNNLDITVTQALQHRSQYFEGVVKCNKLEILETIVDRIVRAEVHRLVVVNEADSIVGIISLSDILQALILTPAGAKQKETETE

One may read the EC50 as the concentration at which the effect is half-maximal. As a reminder, the Emax is the maximal effect, on the per cent scale that the assay sets. In the case of `COc1cc(C(O)=C2C(=O)Nc3cc(Cl)c(-c4ccc(N(C)C)cc4F)cc32)on1` [Compound 148, 6-chloro-5-[4-(dimethylamino)-2-fluoro-phenyl]-3-[hydroxy-(3-methoxyisoxazol-5-yl)methylene]indolin-2-one], the EC50 is 1 nM and the Emax worked out at 158%.
The matching figures for `COc1cc(C(O)=C2C(=O)Nc3cc(Cl)c(-c4ccc(N5CCOCC5)c(F)c4)cc32)on1` [Compound 149, 6-chloro-5-(3-fluoro-4-morpholino-phenyl)-3-[hydroxy-(3-methoxyisoxazol-5-yl)methylene]indolin-2-one]: 6 nM and 170%.
In the case of `CN1CCC(c2ccc(-c3cc4c(cc3Cl)NC(=O)C4=C(O)c3cc(F)cc(F)c3)cc2)C1` (stereo not drawn) [Compound 150, 6-chloro-3-[(3,5-difluorophenyl)hydroxy-methylene]-5-[4-(1-methylpyrrolidin-3-yl)phenyl]indolin-2-one hydrochloride], the EC50 stood at 14 nM and the Emax came to 137%.
For the compound `COc1ccc(C(O)=C2C(=O)Nc3cc(Cl)c(-c4ccc(N5CCOCC5)cc4)cc32)cn1` [Compound 151, 6-chloro-3-[hydroxy-(6-methoxy-3-pyridyl)methylene]-5-(4-morpholinophenyl)indolin-2-one], the EC50 came out at 6 nM and the Emax came out at 161%.
On to `COc1cc(C(O)=C2C(=O)Nc3cc(Cl)c(-c4ccc(OC5CCC(O)CC5)cc4)cc32)on1` (stereo not drawn) [Compound 152, 6-chloro-5-[4-(4-hydroxycyclohexoxy)phenyl]-3-[hydroxy-(3-methoxyisoxazol-5-yl)methylene]indolin-2-one], for which the EC50 came out at 9 nM and the Emax is 223%.
Turning to `COc1cc(C(O)=C2C(=O)Nc3cc(Cl)c(-c4ccc(N(C)C5CC5)cc4)cc32)on1` [Compound 153, 6-chloro-5-[4-[cyclopropyl(methyl)amino]phenyl]-3-[hydroxy-(3-methoxyisoxazol-5-yl)methylene]indolin-2-one], the concentration giving a half-maximal response (EC50) was found to be 7 nM and the Emax was determined as 234%.
`COc1cc(C(O)=C2C(=O)Nc3cc(Cl)c(-c4ccc5c(ccn5C)c4)cc32)on1` [Compound 154, 6-chloro-3-[hydroxy-(3-methoxyisoxazol-5-yl)methylene]-5-(1-methylindol-5-yl)indolin-2-one]: the EC50 came out at 0.7 nM and the Emax worked out at 256%.
Consider `O=C1Nc2cc(Cl)c(-c3ccc(C4CC(O)C4)cc3)cc2C1=C(O)c1ccc(F)cc1F` (stereo not drawn) [Compound 155, 6-chloro-3-[(2,4-difluorophenyl)hydroxy-methylene]-5-[4-(3-hydroxycyclobutyl)phenyl]indolin-2-one], for which the EC50 was 60 nM and the Emax amounted to 131%.
For the compound `COc1cc(C(O)=C2C(=O)Nc3cc(Cl)c(-c4ccc(N5CCC(O)C5)cc4)cc32)on1` (stereo not drawn) [Compound 156, 6-chloro-3-[hydroxy-(3-methoxyisoxazol-5-yl)methylene]-5-[4-(3-hydroxypyrrolidin-1-yl)phenyl]indolin-2-one], the EC50 worked out at 2 nM and the maximal effect (Emax) is 229%.
For the compound `O=C1Nc2cc(Cl)c(-c3ccc(C4(CO)CC4)cc3)cc2C1=C(O)c1cc2cccnc2o1` [Compound 157, 6-chloro-3-[furo[2,3-b]pyridin-2-yl(hydroxy)methylene]-5-[4-[1-(hydroxymethyl)cyclopropyl]phenyl]indolin-2-one], the EC50 was determined as 0.6 nM and the maximal response (Emax) is 141%.
Taken in the same sequence, the figures for `COc1cc(C(O)=C2C(=O)Nc3cc(Cl)c(-c4ccc(C5(CO)CC5)cc4)cc32)ccn1` [Compound 158, 6-chloro-3-[hydroxy-(2-methoxy-4-pyridyl)methylene]-5-[4-[1-(hydroxymethyl)cyclopropyl]phenyl]indolin-2-one] were 0.5 nM and 130%.
For the compound `COc1cc(F)c(C(O)=C2C(=O)Nc3cc(Cl)c(-c4ccc(C5CC(O)C5)cc4)cc32)cc1F` (stereo not drawn) [Compound 159, 6-chloro-3-[(2,5-difluoro-4-methoxy-phenyl)hydroxy-methylene]-5-[4-(3-hydroxycyclobutyl)phenyl]indolin-2-one], the EC50 was found to be 10 nM and the Emax was found to be 180%.
For the compound `O=C1Nc2cc(Cl)c(-c3ccc(C4(CO)CC4)cc3)cc2C1=C(O)c1ccncc1F` [Compound 160, 6-chloro-3-[(3-fluoro-4-pyridyl)hydroxy-methylene]-5-[4-[1-(hydroxymethyl)cyclopropyl]phenyl]indolin-2-one], the EC50 is 0.1 nM and the Emax stood at 191%.
With `O=C1Nc2cc(Cl)c(-c3ccc(C4CC(O)C4)cc3)cc2C1=C(O)c1cc(F)cc(F)c1` (stereo not drawn) [Compound 161, 6-chloro-3-[(3,5-difluorophenyl)hydroxy-methylene]-5-[4-(3-hydroxycyclobutyl)phenyl]indolin-2-one], the 50% effective concentration (EC50) stood at 15 nM and the Emax was 155%.
Turning to `COc1cc(C(O)=C2C(=O)Nc3cc(Cl)c(-c4ccc(N5CCC5)cc4)cc32)on1` [Compound 162, 5-[4-(azetidin-1-yl)phenyl]6-chloro-3-[hydroxy-(3-methoxyisoxazol-5-yl)methylene]indolin-2-one], the EC50 worked out at 0.7 nM and the Emax was 191%.
For the compound `COc1ccc(C(O)=C2C(=O)Nc3cc(Cl)c(-c4ccc(C5(CO)CC5)cc4)cc32)c(OC)c1` [Compound 163, 6-chloro-3-[(2,4-dimethoxyphenyl)hydroxy-methylene]-5-[4-[1-(hydroxymethyl)cyclopropyl]phenyl]indolin-2-one], the EC50 is 3 nM and the Emax is 196%.
The matching figures for `CC(C)(C)c1cc(C(O)=C2C(=O)Nc3cc(Cl)c(-c4ccc(C5CC(O)C5)cc4)cc32)on1` (stereo not drawn) [Compound 164, 3-[(3-tert-butylisoxazol-5-yl)-hydroxy-methylene]6-chloro-5-[4-(3-hydroxycyclobutyl)phenyl]indolin-2-one]: 11 nM and 194%.
As for `COc1cc(C(O)=C2C(=O)Nc3cc(Cl)c(-c4ccc(C5CC(OC)C5)cc4)cc32)on1` (stereo not drawn) [Compound 165, 6-chloro-3-[hydroxy-(3-methoxyisoxazol-5-yl)methylene]-5-[4-(3-methoxycyclobutyl)phenyl]indolin-2-one], the EC50 was determined as 18 nM and the Emax is 218%.
In the case of `CC(C)Oc1cc(C(O)=C2C(=O)Nc3cc(Cl)c(-c4ccc(C5CC(O)C5)cc4)cc32)on1` (stereo not drawn) [Compound 166, 6-chloro-5-[4-(3-hydroxycyclobutyl)phenyl]-3-[hydroxy-(3-isopropoxyisoxazol-5-yl)methylene]indolin-2-one], the EC50 was determined as 13 nM and the Emax is 207%.
As to `COc1cc(C(O)=C2C(=O)Nc3cc(Cl)c(-c4ccc(C5CCN(CC(F)(F)F)C5)cc4)cc32)on1` (stereo not drawn) [Compound 167, 6-chloro-3-[hydroxy-(3-methoxyisoxazol-5-yl)methylene]-5-[4-[1-(2,2,2-trifluoroethyl)pyrrolidin-3-yl]phenyl]indolin-2-one hydrochloride], the EC50 worked out at 117 nM and the Emax was 156%.
As to `O=C1Nc2cc(Cl)c(-c3ccc(C4(CO)CC4)cc3)cc2C1=C(O)c1cc2ccccc2o1` [Compound 168, 3-[benzofuran-2-yl(hydroxy)methylene]6-chloro-5-[4-[1-(hydroxymethyl)cyclopropyl]phenyl]indolin-2-one], the EC50 was 0.3 nM and the maximal effect (Emax) was determined as 173%.
As for `O=C1Nc2cc(Cl)c(-c3ccc(C4(CO)CC4)cc3)cc2C1=C(O)c1cc2ncccc2o1` [Compound 169, 6-chloro-3-[furo[3,2-b]pyridin-2-yl(hydroxy)methylene]-5-[4-[1-(hydroxymethyl)cyclopropyl]phenyl]indolin-2-one], the EC50 came to 0.1 nM and the Emax is 172%.
Turning to `O=C1Nc2cc(Cl)c(-c3ccc(C4(CO)CC4)cc3)cc2C1=C(O)c1cc2cc(Cl)ccc2o1` [Compound 170, 6-chloro-3-[(5-chlorobenzofuran-2-yl)hydroxy-methylene]-5-[4-[1-(hydroxymethyl)cyclopropyl]phenyl]indolin-2-one], the EC50 came to 6 nM and the Emax came to 181%.
The matching figures for `O=C1Nc2cc(Cl)c(-c3ccc(C4CC(O)C4)cc3)cc2C1=C(O)c1ccccc1F` (stereo not drawn) [Compound 171, 6-chloro-3-[(2-fluorophenyl)hydroxy-methylene]-5-[4-(3-hydroxycyclobutyl)phenyl]indolin-2-one]: 6 nM and 197%.
Taken in the same sequence, the figures for `COc1cc(C(O)=C2C(=O)Nc3cc(Cl)c(-c4ccc(OCCCN(C)C)cc4)cc32)on1` [Compound 173, 6-chloro-5-[4-[3-(dimethylamino)propoxy]phenyl]-3-[hydroxy-(3-methoxyisoxazol-5-yl)methylene]indolin-2-one] were 1 nM and 181%.
For `O=C1Nc2cc(Cl)c(-c3ccc(C4CC(O)C4)cc3)cc2C1=C(O)c1cc(C2CC2)no1` (stereo not drawn) [Compound 174, 6-chloro-3-[(3-cyclopropylisoxazol-5-yl)hydroxy-methylene]-5-[4-(3-hydroxycyclobutyl)phenyl]indolin-2-one], the half-maximal effective concentration (EC50) came to 1 nM and the Emax is 185%.
As for `COc1cnccc1C(O)=C1C(=O)Nc2cc(Cl)c(-c3ccc(C4(CO)CC4)cc3)cc21` [Compound 175, 6-chloro-3-[hydroxy-(3-methoxy-4-pyridyl)methylene]-5-[4-[1-(hydroxymethyl)cyclopropyl]phenyl]indolin-2-one], the EC50 was determined as 2 nM and the Emax amounted to 198%.
